# Test results reported in patent publication US20070049538A1, “METHODS FOR USING CUCURBITACIN COMPOUNDS” (SOUTH DAKOTA STATE UNIVERSITY, priority 2005, published 2007).
# Key:
# [1] = Chromatographic hydrophobicity index (CHI) by RP-HPLC in buffered acetonitrile; type: physicochemical; parameters: key: CHI = φ0 (isocratic hydrophobicity index), = A·tR + B; ACN % scale; settings: standard compounds; isochratic and gradient elution of standard mixture
# Procedure: (§1) We used Dynamax liquid chromatograph (Varian Chromatography Systems) with PDA-2 photodiode array UV detector, controlled by the Dynamax PC Chromatography Data System (v. 1.9) software and Dynamax dual pump solvent delivery system, model SD-200. […] Cucurbitacins analytical separation was optimized on Alltima C18 (Alltech; 250 mm×4.6 mm, 5 μm) HPLC column, at gradient elution in acetonitrile (ACN, 30-70% ACN in 57 min), and in MeOH (60-75% MeOH in 50 min). Cucurbitacins stock concentration of 10^−2M in DMSO:ethanol (1:1) was standardized against pure cucurbitacin I (Indofine Chemical Company, Hillsborough, N.J.) by analytical HPLC means. Compounds CHI was measured in both ACN, by using Alltima C18 column, and in MeOH, by using Econosil C18 column (Alltech; 150 mm×4.6 mm, 5 μm). Analytical separations were conducted at a flow rate of 1 ml/min. The aqueous phase was buffered for the CHI measurement. For this purpose, solid ammonium acetate (Fisher Sci. Co., Fair Lawn, N.J.) was dissolved in deionized distilled water at 50 mM final concentration and its pH adjusted to 7.0.
# All standard compounds were purchased from Acros (Acros Organics, NJ). The chromatographic lipophilicity or hydrophobicity was determined applying Valkó's technique (Valkó et al., Anal. Chem. 69 (1997) 2022, the entire disclosure of which is herein incorporated by reference). A standard mixture of seven compounds was prepared in solution: theophylline (compound 19), benzimidazole (compound 20), acetophenone (compound 21), indole (compound 22), propiophenone (compound 23), butyrophenone (compound 24), and valerophenone (compound 25). […] The retention factor, log k=log((tR-t0)/t0), was calculated for each analyte from five good injections of […] sample. The dead time (t0) was measured by injecting NaNO3 together with the sample. Then, the log k values were plotted against isocratic ACN concentrations to establish the linear regression equations for each analyte. From each straight line the isocratic hydrophobicity index was computed, φ0=(intercept/slope). Further, the calibration mixture was injected at fast gradient elution, 0-22 min 0-100% ACN, and three additional minutes at 100% ACN. The φ0 values for the test compounds were plotted against gradient retention time and the linear equation determined from the following equation: φ0=CHI=AtR+B (1)
# The gradient elution conditions were similar to the one from the first approach.
# (§2) Cucurbitacins lipophilicity was measured by RP-HPLC. […] Due to its high viscosity, aqueous MeOH required a shorter column than the one applied for ACN. First, the C18 columns were calibrated against a standard mixture, and the relationships established between the fast gradient tR and φ0 or published CHI (see Eqs. (2)-(4) from Table 2). Second, cucurbitacins were injected at fast gradient elution under similar conditions, and their CHI calculated (Table 4) from Eqs. (2)-(4). Eqs.
# [2] = Chromatographic hydrophobicity index (CHI) by RP-HPLC in buffered methanol; type: physicochemical; settings: standard compounds; isochratic and gradient elution of standard mixture
# Procedure: as §1
# A standard mixture of 10 compounds including 19-21, 23-27, aniline (compound 28) and bromobenzene (compound 29), dissolved in MeOH, was injected at five isochratic elution, at 40, 45, 50, 55, and 60% MeOH. Then the mixture was injected at fast gradient elution to establish the correlation from Eq. (1). The fast linear gradient elution was optimized for 30-100% MeOH in aqueous buffer with 10 min runtime.
# as §2
# [3] = standard compounds; gradient elution and correlation with published data; cited from earlier work
Compound,CHIACN (b) [1],CHIMeOH (b) [2],CHIACN (c) [3]
"CC(=O)c1ccccc1 [Acetophenone (21), acetophenone, reference compound]",61.93 ± 0.05,52.47 ± 0.05,64.90
"CCCC(=O)c1ccccc1 [Butyrophenone (24), butyrophenone, reference compound]",79.32 ± 0.14,66.79 ± 0.05,88.49
"CCCCC(=O)c1ccccc1 [Valerophenone (25), valerophenone, reference compound]",86.66 ± 0.08,73.05 + 0.12,97.67
"Cn1c(=O)c2[nH]cnc2n(C)c1=O [Theophylline (19), theophylline, reference compound]",32.63 ± 0.07,25.76 ± 0.05,15.76
"c1ccc2[nH]cnc2c1 [Benzimidazole (20), benzimidazole, reference compound]",43.18 ± 0.12,41.07 ± 0.04,30.71
"CCC(=O)c1ccccc1 [Propiophenone (23), propiophenone, reference compound]",71.72 + 0.15,60.41 + 0.04,78.41
